Source: article PMC5131364, “Pharmacologic modulation of RORγt translates to efficacy in preclinical and translational models of psoriasis and inflammatory arthritis” (Scientific Reports, 2016)

Experiments:
PBMC from healthy donors = test: IL-17A production from PBMC of healthy donors; type: cell-based; details: Homo sapiens, typically observed
Excerpt: Frozen PBMCs of healthy and rheumatoid arthritis patients were obtained from SeraCare Life Sciences (Gaithersburg, MD). […] 3 days later, supernatants were collected and analyzed by MSD multi-spot assay or ELISA for IL-17A, IL-22 and IL-13 production.

[1] = system: collagen-induced arthritis in DBA/1Lacj mice; test: Mouse collagen-induced arthritis model; type: in vivo; details: 60 mg/kg BID oral
Protocol: Mice (female DBA/1Lacj mice, Jackson Laboratories; 8–10 weeks) were housed with 12 hours light-dark cycle with food and water provided ad libitum. Following acclimation, mice were immunized with an emulsion containing equal amounts of Chick Type II Collagen (Chondrex, Redmond, WA) and Complete-Freund’s adjuvant (CFA, Chondrex), 100 μg each per mouse, on day 0 at the base of the tail and administered a second immunization boost on day 21. On day 21, animals were examined for clinical arthritis scores and randomized into treatment groups. […] The clinical arthritis scores were evaluated from days 21 to 34. Animals were euthanized under CO2 on day 35. Both hind-paws from each animal were collected and fixed in 10% neutral buffered formalin for histopathology. Both front paws were digested after removing the skin in 0.125% (v/v) Dispase II (Roche, Indianapolis, IN), 0.2% collagenase II (Roche, Indianapolis, IN), and 0.2% collagenase IV (Sigma-Aldrich, St. Louis, MO) in HBSS for 75 min at 37 °C and passed through a cell strainer. Cells were then stimulated and analyzed by flow cytometry for cytokine-producing cells.
Tissues were fixed in 10% formalin, sectioned, and stained with H&E for histology at Seventh Wave Laboratories, LLC, (Chesterfield, MO).

[2] = system: CD4+ T cells under Th1 conditions; test: Mouse CD4+ T cell in vitro Th1 differentiation; type: cell-based; details: titrated compound, ELISA
Protocol: Mouse CD4+ T cell in vitro Th1 differentiation
Total CD4+ T cells were isolated from splenocytes of C57/BL6 mice (Chareles River Labrotory) using a CD4+ T cell isolation kit (Miltenyl Biotec, Auburn, CA), following the manufacturer’s instructions. Cells were resuspended in culture medium (described in Method section of Th17 differentiation) and were added to 96‐well plates at 2x10^5 per well. Titrated JNJ‐54271074 was added to each well at final DMSO concentration of 0.2%. Cells were incubated for 1 hour, after which Th1 cell differentiation medium was added with final concentrations of 1 µg/ml anti‐CD3, 5 µg/mL anti‐CD28 (BD Pharmingen, San Diego, CA), 10 µg/ml anti‐IL4, 10 ng/mL IL‐12, (R&D Systems, Minneapolis, MN). Cells were cultured at 37 °C and 5% CO2 for 3 days. Supernatants were collected and the accumulated cytokines in culture were measured by ELISA kits (R&D Systems, Minneapolis, MN) following manufacturers' instructions.
IL‐23 induced IL‐17A and IL‐22 production in mouse splenocytes splenocytes were isolated from C57/BL6 mice and resuspended in medium and cultured in 96‐well plates at […] per 100 µL per well. […] Supernatants were collected and the accumulated cytokines in culture were measured by ELISA according to the manufacturer’s instructions (IL‐17A kit from R&D systems, and IL‐22 from Biolegend San Diego). […]

[3] = system: CLA+ memory T cells / autologous epidermal cells from guttate psoriasis patients; test: Co-culture of human psoriatic CLA+ memory T cells with epidermal cells, streptococcal extract; type: cell-based
Excerpt: The study protocol was reviewed and subsequently approved by the Medical Ethics Committee of the Hospitals where the biopsies and blood were procured. All psoriasis donors in this study were required to be without disease-specific systemic therapy for at least 4 weeks or topical treatment for at least 2 weeks before the clinical samples were obtained. Circulating CLA^+/CLA^− CD45RO^+ CD3^+ cells and lesional epidermal cells were obtained from the same guttate psoriasis patient following the procedure described previously. In brief, memory T cell populations were isolated and enriched from peripheral blood lymphocytes by immunomagnetic separations. Epidermal cell suspensions were obtained from lesional biopsies by a dispase/trypsin treatment. The culture system was performed by seeding 50,000 circulating CLA^+ or CLA^− memory T cells with 30,000 autologous epidermal cells in a 96-flat bottom microwell plate (Nunc, Roskilde, Denmark) with culture medium (RPMI with 10% fetal calf serum). […] Cytokines in supernatants were quantified by multiplex fluorescent bead-based immunoassay, Diaclone DIAplex kit (Gen-Probe, Besançon, France), and data were collected with a F500 Flow Cytometer (Beckman Coulter, Fullerton, CA).

[4] = 1 μM, SE-stimulated CLA+/epidermal cell co-culture, not statistically significant

COc1nc2ccc([C@@](O)(c3ccc(C)nc3C)c3cnnn3C)cc2c(Cl)c1Cc1ccc(C(F)(F)F)cc1 [JNJ-54271074]
IC50 (PBMC from healthy donors): 3 ± 0.9 nM | reduction of AUC for disease score [1]: 79% | decrease of IL-17A-producing CD3+ cell population in paws ([1]; day 35): ~ 70% | inflammation, cartilage damage and bone destruction compared with vehicle ([1]; hind paws histology): significantly reduced | reduction of total histopathology score ([1]; hind paws, day 35): 80% | IFNγ production under Th1 conditions [2]: minimal effects | TNFα and IL-8 production ([3]; 1 μM, SE-stimulated CLA+/epidermal cell co-culture): no effect | increase of IFNγ production [3, 4]: 64% | reduction of IL-6 [3, 4]: 32% | reduction of IL-17F production [3, 4]: 40% | decrease of IL-17A production ([3]; 1 μM, SE-stimulated CLA+/epidermal cell co-culture, vs DMSO, significant): 78% | IL-17A production in human cell co-culture model ([3]; discussion, in words): significant inhibition
